# According to ChEMBL document CHEMBL1129145, “Phosphonate-containing analogs of cholesteryl ester as novel inhibitors of cholesteryl ester transfer protein” (Bioorg Med Chem Lett, 1996):
# pIC50: −log10 of the molar value.
# Key:
# [1] = target: T1, Cholesteryl ester transfer protein (Homo sapiens, UniProt P11597); assay: Tested for inhibition of [3H]cholesteryl linoleate(CE) transfer from donor HDL to acceptor LDL driven by recombinant human cholesteryl ester transfer protein
# T1 sequence (P11597 whole entry): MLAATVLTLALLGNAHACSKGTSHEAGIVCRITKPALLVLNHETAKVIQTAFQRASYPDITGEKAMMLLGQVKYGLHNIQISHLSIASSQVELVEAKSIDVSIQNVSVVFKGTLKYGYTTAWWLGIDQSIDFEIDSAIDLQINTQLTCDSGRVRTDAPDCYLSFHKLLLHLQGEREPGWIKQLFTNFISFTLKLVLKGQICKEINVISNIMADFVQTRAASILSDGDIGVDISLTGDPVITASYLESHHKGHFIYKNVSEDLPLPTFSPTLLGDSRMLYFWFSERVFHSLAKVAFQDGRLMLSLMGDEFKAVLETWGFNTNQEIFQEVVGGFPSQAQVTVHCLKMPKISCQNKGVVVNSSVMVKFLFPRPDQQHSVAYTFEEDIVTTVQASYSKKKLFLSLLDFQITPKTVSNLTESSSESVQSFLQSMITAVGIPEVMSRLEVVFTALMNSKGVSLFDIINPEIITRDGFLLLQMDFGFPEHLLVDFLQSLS
# [2] = target: T1, Cholesteryl ester transfer protein; assay: Tested for inhibition of [3H]cholesteryl linoleate(CE) transfer from donor HDL to acceptor LDL driven by recombinant human cholesteryl ester transfer protein; Inactive
# [3] = target: T1, Cholesteryl ester transfer protein; assay: Tested for inhibition of [3H]cholesteryl linoleate(CE) transfer from donor HDL to acceptor LDL driven by recombinant human Cholesteryl ester transfer protein
# [4] = target: T2, Cholesteryl ester transfer protein (Homo sapiens) (UniProt P11597); assay: Tested for inhibition of [3H]cholesteryl linoleate(CE) transfer from donor HDL to acceptor LDL driven by recombinant human Cholesteryl ester transfer protein at 30 micro M
# T2 sequence (whole entry): T1 sequence (P11597 whole entry)
# [5] = target: T2, Cholesteryl ester transfer protein (Homo sapiens); assay: Tested for inhibition of [3H]cholesteryl linoleate(CE) transfer from donor HDL to acceptor LDL driven by recombinant human cholesteryl ester transfer protein at 30 micro M
# [6] = target: T1, Cholesteryl ester transfer protein; assay: Tested for inhibition of [3H]cholesteryl linoleate(CE) transfer from donor HDL to acceptor LDL driven by recombinant human Cholesteryl ester transfer protein; Inactive
# [7] = target: T1, Cholesteryl ester transfer protein; assay: Tested for inhibition of [3H]cholesteryl linoleate(CE) transfer from donor HDL to acceptor LDL driven by recombinant human cholesteryl ester transfer protein; inactive
Compound,pIC50 [3],IC50 [6],further results
CCCCCCCCCCCCCCCCCCP(=O)(O)OCc1ccccc1,,,pIC50 [1]: 5.70
CCCCCCCCCCCCCCCCCCP(=O)(OC)OCc1ccccc1 (stereo not given),,,IC50 [2]: Not Active
CCCCCCCCCCCCCCCCCCP(=O)(O)CCc1ccccc1,,,pIC50 [1]: 4.85
CCCCCCCCCCCCCCP(=O)(O)Oc1ccc2ccccc2c1,4.62,,
CCCCCCCCCCCCCCCCCCP(=O)(O)O[C@H]1CC[C@@]2(C)C(CC[C@H]3[C@@H]4CC[C@H]([C@H](C)CCCC(C)C)[C@@]4(C)CC[C@@H]32)C1 (stereo not given in full),,,inhibition [4]: 30%
CCCCCCCCCCCCCCCCCCP(=O)(O)OC,,,inhibition [5]: 46%
CCCCCCCCCCCCCCP(=O)(O)OCc1cccc(Oc2ccccc2)c1,5.22,,
CCCCCCCCCCCCCCCCCC[PH](=O)OCc1ccccc1 (stereo not given),,Not Active,
CCCCCCCCCC[PH](=O)OCc1ccccc1 (stereo not given),,Not Active,
CCCCCCCCCCCCCCCCCC[PH](=O)O,,,inhibition [4]: 28%
CCCCCCCCCCCCCCCCCCP(=O)(O)Oc1ccc2c(c1)Cc1ccccc1-2,,Not Active,
CCCCCCCCCCCCCCCCCCP(=O)(O)OCc1cccnc1,,Not Active,
CCCCCCCCCCCCCCCCCCP(=O)(O)OC1c2ccccc2-c2ccccc21,,Not Active,
CCCCCCCCCCCCCCCCCC[PH](=O)O[C@H]1CC[C@@]2(C)C(CC[C@H]3[C@@H]4CC[C@H]([C@H](C)CCCC(C)C)[C@@]4(C)CC[C@@H]32)C1 (stereo not given in full),,,IC50 [7]: Not Active
CCCCCCCCCCCCCCP(=O)(O)OCc1ccccc1,5.30,,
CCCCCCCCCCCCCCCCCCP(=O)(O)Oc1cc2ccccc2c2ccccc12,,Not Active,
CCCCCCCCCCCCCc1n[nH]c(=S)n1-c1ccccc1,5.82,,
CCCCCC[PH](=O)OCc1ccccc1 (stereo not given),,Not Active,

# Second part, led by results:
pIC50 [3],Compound,IC50 [6],further results
4.82,CCCCCCCCCCCCCCP(=O)(O)OCc1ccoc1,,
5.40,CCCCCCCCCCCCCCCP(=O)(O)OCc1ccccc1,,
